Like-named read-outs stand apart in the source and are kept apart here.

Consider three molecules from US12404244B2, “Pan-KIT kinase inhibitor having quinoline structure and application thereof” (Tarapeutics Science Inc., priority 2018, dated 2025).

One test relates to BaF3. Nature of the test: Proliferation of parental BaF3 cells (CCK-8). Format: cell-based, mouse. Conditions: Mus musculus, read-out: GI50 BaF3. From the text:
(§1) Compounds as provided herein were further evaluated for their inhibitory effects on proliferation of cancer cells by testing their effects on growth of cancer cells. In this example the following cells were used: primary mouse B cells BaF3 (purchased from ATCC), GIST-T1 cells of the human gastrointestinal stromal tumor cell line (expressing wild-type KIT gene) (purchased from Cosmo Bio Co., Ltd. (Japan)). The present lab further constructed and used the following: mouse Tel-Kit-BaF3 (stably expressing KIT wild-type kinase), mouse Tel-Kit/T670I-BaF3 (stably expressing KIT T670I mutant kinase), mouse Tel-Kit/V559A-BaF3 (stably expressing KIT V559A mutant kinase), mouse Tel-Kit/V559D-BaF3 (stably expressing KIT V559D mutant kinase), mouse Tel-Kit/V559G-BaF3 (stably expressing KIT V559G mutant kinase), mouse Tel-Kit/V560D-BaF3 (stably expressing KIT V560D mutant kinase), mouse Tel-Kit/L576P-BaF3 (stably expressing KIT L576P mutant kinase), mouse Tel-Kit/V654A-BaF3 (stably expressing KIT V654A mutant kinase), mouse Tel-Kit/V654A/V559D-BaF3 (stably expressing KIT V654A V559D mutant kinase), mouse Tel-Kit/T670E-BaF3 (stably expressing KIT T670E mutant kinase), mouse Tel-Kit/T670I/V559D-BaF3 (stably expressing KIT T670I V559D mutant kinase), mouse Tel-Kit/S709F-BaF3 (stably expressing KIT S709F mutant kinase), mouse Tel-Kit/D816E-BaF3 (stably expressing KIT D816E mutant kinase), mouse Tel-Kit/D816H-BaF3 (stably expressing KIT D816H mutant kinase), mouse Tel-Kit/D820E-BaF3 (stably expressing KIT D820E mutant kinase), mouse Tel-Kit/D820G-BaF3 (stably expressing KIT D820G mutant kinase), mouse Tel-Kit/D820Y-BaF3 (stably expressing KIT D820Y mutant kinase), mouse Tel-Kit/N822K-BaF3 (stably expressing KIT N822K mutant kinase), mouse Tel-Kit/Y823D-BaF3 (stably expressing KIT Y823D mutant kinase), mouse Tel-Kit/A829P-BaF3 (stably expressing KIT A829P mutant kinase), GIST-T1-T670I cells of the human gastrointestinal stromal tumor cell line (expressing KIT-T670I mutant gene). The above cell lines were constructed by: amplifying respectively the sequences of human KIT and various mutant kinase regions of KIT via PCR, inserting the fragments respectively into MSCV-Puro vectors having a N-terminal TEL fragment and/or a NPM fragment and/or a TPR fragment (purchased from Clontech), transfecting mouse BaF3 cells with the vectors by means of retrovirus to obtain stably transfected cells, removing the growth factor IL-3, and thereby eventually obtaining cell lines that depend on the transferred protein KIT or various mutants of KIT. The GIST-T1-T670I (expressing C-KIT-T670I mutant gene) cell line was constructed by our laboratory as follows: designing sgRNA that targeted a region around T670 of the KIT gene with CRISPR Design Tool (website: crispr.mit.edu, Zhang Feng Lab), cloning it into pSpCas9(BB)-2A-Puro vector; co-transfecting cells with the resultant vector and a single-stranded oligonucleotide having T670I site mutation that is near to T670, subjecting the resultant to antibiotics screening, followed by dilution, and monocellular culture in a 96-well plate; validating the site T670 of the cells by sequence detection via Sanger sequencing.
The cells after incubation were detected using CCK-8 (purchased from MedChem Express, Shanghai, China) cell viability assay kit (CCK-8 may be reduced by dehydrogenase in living cells to a highly water-soluble yellow formazan product, and the amount of the resultant formazan is proportional to the number of living cells), the number of living cells were quantified with a microplate reader, and GI50 of the compounds and the control compounds were calculated (the results shown in Table 2 and Table 3).

In the next test the test system is TEL-KIT/T670I-BaF3. Nature of the test: Proliferation of TEL-KIT/T670I-BaF3 cells (CCK-8). Format: cell-based, mouse. Conditions: Mus musculus, read-out: GI50 TEL-KIT/T670I-BaF3.
From the text: as §1

The test system of the next test is TEL-KIT/V559A-BaF3. Put plainly: Proliferation of TEL-KIT/V559A-BaF3 cells (CCK-8). The format is cell-based. To be noted: Mus musculus, read-out: GI50 TEL-KIT/V559A-BaF3.
From the text: as §1, with “The GIST-T1-T670I (expressing C-KIT-T670I mutant gene) cell line was constructed by our laboratory as follows: designing sgRNA that targeted a region around T670 of the KIT gene with CRISPR Design Tool (website: crispr.mit.edu, Zhang Feng Lab), cloning it into pSpCas9(BB)-2A-Puro vector; co-transfecting cells with the resultant vector and a single-stranded oligonucleotide having T670I site mutation that is near to T670, subjecting the resultant to antibiotics screening, followed by dilution, and monocellular culture in a 96-well plate; validating the site T670 of the cells by sequence detection via Sanger sequencing.” left out

In the next test the test system is TEL-KIT/V560D-BaF3. Nature of the test: Proliferation of TEL-KIT/V560D-BaF3 cells (CCK-8). The format is cell-based. Conditions: Mus musculus, read-out: GI50 TEL-KIT/V560D-BaF3.
From the text: as §1, with “The GIST-T1-T670I (expressing C-KIT-T670I mutant gene) cell line was constructed by our laboratory as follows: designing sgRNA that targeted a region around T670 of the KIT gene with CRISPR Design Tool (website: crispr.mit.edu, Zhang Feng Lab), cloning it into pSpCas9(BB)-2A-Puro vector; co-transfecting cells with the resultant vector and a single-stranded oligonucleotide having T670I site mutation that is near to T670, subjecting the resultant to antibiotics screening, followed by dilution, and monocellular culture in a 96-well plate; validating the site T670 of the cells by sequence detection via Sanger sequencing.” left out

The subject of another test is TEL-KIT/V654A/V559D-BaF3. Put plainly: Proliferation of TEL-KIT/V654A/V559D-BaF3 cells (CCK-8). To be noted: Mus musculus, read-out: GI50 TEL-KIT/V654A/V559D-BaF3. Format: cell-based.
From the text: as §1, with “The GIST-T1-T670I (expressing C-KIT-T670I mutant gene) cell line was constructed by our laboratory as follows: designing sgRNA that targeted a region around T670 of the KIT gene with CRISPR Design Tool (website: crispr.mit.edu, Zhang Feng Lab), cloning it into pSpCas9(BB)-2A-Puro vector; co-transfecting cells with the resultant vector and a single-stranded oligonucleotide having T670I site mutation that is near to T670, subjecting the resultant to antibiotics screening, followed by dilution, and monocellular culture in a 96-well plate; validating the site T670 of the cells by sequence detection via Sanger sequencing.” left out

For another test, the system named is TEL-KIT/T670I/V559D-BaF3. Nature of the test: Proliferation of TEL-KIT/T670I/V559D-BaF3 cells (CCK-8). Format: cell-based. Conditions: Mus musculus, read-out: GI50 TEL-KIT/T670I/V559D-BaF3.
From the text: as §1, with “The GIST-T1-T670I (expressing C-KIT-T670I mutant gene) cell line was constructed by our laboratory as follows: designing sgRNA that targeted a region around T670 of the KIT gene with CRISPR Design Tool (website: crispr.mit.edu, Zhang Feng Lab), cloning it into pSpCas9(BB)-2A-Puro vector; co-transfecting cells with the resultant vector and a single-stranded oligonucleotide having T670I site mutation that is near to T670, subjecting the resultant to antibiotics screening, followed by dilution, and monocellular culture in a 96-well plate; validating the site T670 of the cells by sequence detection via Sanger sequencing.” left out

In a further test the test system is TEL-KIT/D820Y-BaF3. Put plainly: Proliferation of TEL-KIT/D820Y-BaF3 cells (CCK-8). The format is cell-based. To be noted: Mus musculus, read-out: GI50 TEL-KIT/D820Y-BaF3.
From the text: as §1, with “The GIST-T1-T670I (expressing C-KIT-T670I mutant gene) cell line was constructed by our laboratory as follows: designing sgRNA that targeted a region around T670 of the KIT gene with CRISPR Design Tool (website: crispr.mit.edu, Zhang Feng Lab), cloning it into pSpCas9(BB)-2A-Puro vector; co-transfecting cells with the resultant vector and a single-stranded oligonucleotide having T670I site mutation that is near to T670, subjecting the resultant to antibiotics screening, followed by dilution, and monocellular culture in a 96-well plate; validating the site T670 of the cells by sequence detection via Sanger sequencing.” left out

In the next test the test system is TEL-KIT/N822K-BaF3. Put plainly: Proliferation of TEL-KIT/N822K-BaF3 cells (CCK-8). Format: cell-based. To be noted: Mus musculus, read-out: GI50 TEL-KIT/N822K-BaF3.
From the text: as §1, with “The GIST-T1-T670I (expressing C-KIT-T670I mutant gene) cell line was constructed by our laboratory as follows: designing sgRNA that targeted a region around T670 of the KIT gene with CRISPR Design Tool (website: crispr.mit.edu, Zhang Feng Lab), cloning it into pSpCas9(BB)-2A-Puro vector; co-transfecting cells with the resultant vector and a single-stranded oligonucleotide having T670I site mutation that is near to T670, subjecting the resultant to antibiotics screening, followed by dilution, and monocellular culture in a 96-well plate; validating the site T670 of the cells by sequence detection via Sanger sequencing.” left out

For the molecule `COc1cc2nccc(Oc3ccc(NC(=O)Cc4ccc(C)c(C(F)(F)F)c4)cc3)c2cc1OC` [Example 1, N-(4-((6,7-dimethoxyquinolin-4-yl)oxy)phenyl)-2-(4-methyl-3-(trifluoromethyl)phenyl)acetamide], the GI50 in the test on BaF3 (BaF3, 72 h) stood at 7260 nM; in the test with TEL-KIT/T670I-BaF3 (72 h), 14 nM; with TEL-KIT/V559A-BaF3 (72 h) it was 16 nM; in the test with TEL-KIT/V560D-BaF3 (72 h), 5 nM; in the test with TEL-KIT/V654A/V559D-BaF3 (72 h), 39 nM; in the test with TEL-KIT/T670I/V559D-BaF3 (72 h), 48 nM. The GI50 in the test with TEL-KIT/D820Y-BaF3 (72 h) worked out at 6 nM; with TEL-KIT/N822K-BaF3 (72 h), 69 nM.

For `COc1cc2nccc(Oc3ccc(NC(=O)Cc4ccc(Cl)c(C(F)(F)F)c4)cc3)c2cc1OC` [Example 2, N-(4-((6,7-dimethoxyquinolin-4-yl)oxy)phenyl)-2-(4-chloro-3-(trifluoromethyl)phenyl)-acetamide], the GI50 in the test with BaF3 (BaF3 parent cells, 72 hours, CCK-8) was found to be 5970 nM; in the test with TEL-KIT/T670I-BaF3 (72 hours, CCK-8), 4 nM; with TEL-KIT/V559A-BaF3 (72 hours, CCK-8) it was 21 nM; with TEL-KIT/V560D-BaF3 (72 hours, CCK-8), 4 nM; in the test on TEL-KIT/V654A/V559D-BaF3 (72 hours, CCK-8) it was 42 nM; in the test with TEL-KIT/T670I/V559D-BaF3 (72 hours, CCK-8) it was 45 nM. In addition, the GI50 in the test on TEL-KIT/D820Y-BaF3 (72 hours, CCK-8) was found to be 3 nM; in the test on TEL-KIT/N822K-BaF3 (72 hours, CCK-8), 26 nM.

`CCN(CC)CCNC(=O)c1c(C)[nH]c(/C=C2\C(=O)Nc3ccc(F)cc32)c1C` [Sunitinib, reference compound]: the GI50 in the test with TEL-KIT/T670I-BaF3 (72 hours, CCK-8) was 21 nM; in the test on TEL-KIT/V559A-BaF3 (72 hours, CCK-8), 20 nM; in the test on TEL-KIT/V560D-BaF3 (72 hours, CCK-8), 35 nM; with TEL-KIT/V654A/V559D-BaF3 (72 hours, CCK-8) it was 19 nM; with TEL-KIT/T670I/V559D-BaF3 (72 hours, CCK-8), 12 nM; with TEL-KIT/D820Y-BaF3 (72 hours, CCK-8), 172 nM. In addition, the GI50 with TEL-KIT/N822K-BaF3 (72 hours, CCK-8) is 384 nM.
